Data as given in patent US20230101768A1, “METHOD TO TREAT MANGANESE TOXICITY AND MANGANESE-INDUCED PA[…] HUMANS” (priority 2021, published 2023).

Tests used:
Type in all cases: cell-based, human
[1] = test system: HIF2α; conditions: HepG2 cells, 250 μM manganese; evident at 4 hours, baseline by 24 h
Protocol: (§1) manganese and drug treatments in cell culture. Cells were treated with indicated levels of manganese as manganeseCl2.4H2O (Fisher). Vehicle for manganese treatment was water. Prolyl hydroxylase inhibitors roxadustat (Caymen), vadadustat, and molidustat (both APE-Bio); the HIFα inhibitor LW6 (Selleckchem); the proteasomal inhibitor MG132 (Sigma); and the transcription inhibitor actinomycin D (Sigma) were dissolved in DMSO. […] Vehicle treatment for all drugs was DMSO.
(§2) Immunoblots. HepG2 cells were cultured in 35 mm dishes, treated with or without manganese, MG132 and/or prolyl hydroxylase inhibitors, and scrapped using 200 μl of RIPA buffer (50 mM Tris-HCl, pH7.4; 150 mM NaCl; 1Mm EDTA; 1% Triton; 0.25% sodium deoxycholate; protease inhibitors cocktail (Thermo A32953)). Whole-cell lysates were prepared by adding loading buffer (50 mM Tris-HCl, pH 7.4; 2% sodium dodecyl sulfate; 10% glycerol, 0.1 M dithiothreitol; 0.01% (weight/volume) bromophenol blue) and boiling the samples for 5 min. Equal volumes of samples were loaded per lane. Further processing was as described by us previously (47). Images were quantified using ImageQuant TL software (GE).
(§3) Antibodies and chemicals. The inventors used the following commercial primary antibodies in this study: rabbit polyclonal anti-HIF1α (Abcam, Ab2185), rabbit polyclonal anti-HIF2α (Novus, NB100-122), rabbit monoclonal anti-HIF1α proline 564 (Cell signaling, 3434S), and mouse monoclonal anti-tubulin (Sigma, T5168). […] Sources of chemicals not provided elsewhere were Thermo Fisher Scientific or Sigma-Aldrich.

[2] = test system: HIF1α; conditions: HepG2 cells, 250 μM manganese; evident at 4 hours, baseline by 24 h
Protocol: as §1, §2, §3

[3] = test system: prolyl hydroxylated HIF1α; conditions: HepG2 cells, 10 μM MG132 for 1 h then 250 μM manganese for 4 h
Protocol: as §1, §2, §3

[4] = test system: VEGF; conditions: HepG2 cells, 250 μM manganese for 4 h; expression without manganese normalized to 1; mean±SE, N=4
Protocol: (§4) Cells were treated with 0 or 250 μM manganese for 4 h, and gene expression was analyzed by qRT-PCR. For each transcript, expression without manganese treatment was normalized to 1. N=4. Data are mean±SE.
(§5) Cell culture. HepG2 cells were grown in Eagle's modified essential medium (MEM; Corning) with 10% fetal bovine serum (Atlanta Biologicals), 100 IU/ml penicillin (Corning), and 100 μg/ml streptomycin (Corning). 293T cells were maintained in Dulbecco's modified essential medium/F12 (Thermo) supplemented with 10% fetal bovine serum, penicillin (100 IU/ml), and streptomycin (100 μg/ml). Human primary hepatocytes were purchased from XenoTech (catalog #HPCH10+) and cultured according to protocols provided by the supplier.
as §1
(§6) Quantitative RT-PCR assays. RNA extraction from HepG2 cells and mouse tissue, reverse transcription to cDNA, and qRT-PCR analyses were performed as described by us previously (47, 50). For analyses of mouse brain samples, a part of the midbrain, including the basal ganglia, was used. Transcript levels were quantified using the ΔΔCT method with 18S (in mice) or TBP (in HepG2 cells) as the internal control, also as described by us previously (47, 50).

[5] = test system: SLC30A10; conditions: HepG2 cells
Protocol: as §4, §5, §1, §6

[6] = test system: SLC30A10 promoter
Text: A luciferase reporter plasmid containing the proximal promoter of human SLC30A10 has been previously described and was a gift of Dr. Ruth Valentine (100). The promoter fragment corresponding to bases −679 to +211 relative to the start of transcription was sub-cloned into the Xho1 and SpeI sites of pRRLSIN.cPPTLuciferase.WPRE vector (Addgene, #69251), which is a luciferase vector for lentivirus infections. Deletion mutants were generated using the loop-out modification of the QuikChange protocol.
Lentiviral infections. Stable cells were generated by lentivirus infection essentially as described by us previously (49, 98). Briefly, lentivirus was produced in HEK293T cells by co-transfecting transfer plasmids described above with plasmids coding for a third generation packing system that is routinely used (pRSV-Rev, pRRE, and pCMV-VSVG) (49, 98). Viral supernatants were collected 40-48 h post-transfection. HepG2 cells for infection were plated in a 60 mm dish 24 h before infection so that cells reached a confluence of 30% on the day of infection. Collected viral supernatants were filtered through a 0.45-μm polyvinylidene difluoride filter, and cells were incubated with a 1:2 dilution of viral supernatant containing 5 μg/mL Polybrene (Santa Cruz). […]

With `O.O.O.O.[Cl][Mn][Cl]` [manganese, manganeseCl2.4H2O] the “HIF2α protein levels after manganese” value [1] was “increased”, the “HIF1α protein levels after manganese” value [2] was “increased” and the “Signals for prolyl hydroxylated HIF1α in manganese-treated condition” value [3] was “substantially lower”. For the same molecule, the “Relative expression after manganese, VEGF transcript” value [4] was 2.41 ± 0.29, the “Relative expression after manganese, SLC30A10 transcript” value ([5]; 250 μM manganese for 4 h, expression without manganese normalized to 1, mean±SE, N=4) was 2.40 ± 0.28 and the “Time at which SLC30A10 levels returned to baseline” value ([5]; 250 μM manganese, time course) was no more than 24 h. For the same molecule, the “Time to statistically significant increase of SLC30A10” value ([5]; 250 μM manganese, time course) was no more than 2 h, the “Lowest manganese level at which SLC30A10 levels were elevated” value ([5]; dose response, 4 h) was 62.5 µM and the “Luciferase activity after manganese” value [6] was “increased”.
